Source: the supplement of paper PMC10307832

How the values were obtained:
Assay in all cases: relative viability (nuclei count vs DMSO), 5 days (fraction); higher = more cells survive
Zosuquidar + Luminespib = compound: O[C@@H](COc1cccc2ncccc12)CN1CCN([C@@H]2c3ccccc3[C@@H]3[C@H](c4ccccc42)C3(F)F)CC1 [Zosuquidar] + CCNC(=O)c1noc(-c2cc(C(C)C)c(O)cc2O)c1-c1ccc(CN2CCOCC2)cc1 [Luminespib] (partner 0.01 µM)
Method in brief: (§1)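 Cells from lung cancer lines were seeded into 1536-well plates and, one day later, dosed by pin tool. Treatments were either a single drug or a fixed dose of an anchor drug with five library-drug doses (not always all listed) in √10 steps. After 5 days, nuclei were stained in a one-step fixation (final 0.05% Triton X-100, 1% formaldehyde, 1 ug/ml Hoechst) and counted on 4× images, and relative viability is the treated-to-vehicle nuclei ratio, as the median of duplicate plates.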

Kobe2602 + Dasatinib = compound: C1=CC(=CC=C1NC(=S)NNC2=C(C=C(C=C2[N+](=O)[O-])C(F)(F)F)[N+](=O)[O-])F [Kobe2602] + Cc1nc(Nc2ncc(C(=O)Nc3c(C)cccc3Cl)s2)cc(N2CCN(CCO)CC2)n1 [Dasatinib] (partner 0.075 µM)
Method in brief: as §1

Zosuquidar + Lapatinib = compound: O[C@@H](COc1cccc2ncccc12)CN1CCN([C@@H]2c3ccccc3[C@@H]3[C@H](c4ccccc42)C3(F)F)CC1 [Zosuquidar] + CS(=O)(=O)CCNCc1ccc(-c2ccc3ncnc(Nc4ccc(OCc5cccc(F)c5)c(Cl)c4)c3c2)o1 [Lapatinib] (partner 2 µM)
Method in brief: as §1

[1] = compound: COc1cc2nccc(Oc3ccc(NC(=O)C4(C(=O)Nc5ccc(F)cc5)CC4)cc3)c2cc1OC [Cabozantinib] + CS(=O)(=O)N1CCN(Cc2cc3nc(-c4cccc5[nH]ncc45)nc(N4CCOCC4)c3s2)CC1 [Pictilisib] (partner 1 µM)
Method in brief: as §1

## NCI-H460
Zosuquidar + Luminespib; first compound 0.01 µM
  relative viability: 0.0346
Zosuquidar + Luminespib; first compound 0.03162 µM
  relative viability: 0.0269
Zosuquidar + Luminespib; first compound 0.1 µM
  relative viability: 0.0352
Zosuquidar + Luminespib; first compound 0.3162 µM
  relative viability: 0.0358
Zosuquidar + Luminespib; first compound 1 µM
  relative viability: 0.0277
Kobe2602 + Dasatinib; first compound 0.2 µM
  relative viability: 0.504
Kobe2602 + Dasatinib; first compound 0.6325 µM
  relative viability: 0.518
Kobe2602 + Dasatinib; first compound 2 µM
  relative viability: 0.507
Kobe2602 + Dasatinib; first compound 6.325 µM
  relative viability: 0.49
Kobe2602 + Dasatinib; first compound 20 µM
  relative viability: 0.575
Zosuquidar + Lapatinib; first compound 0.01 µM
  relative viability: 0.927
Zosuquidar + Lapatinib; first compound 0.03162 µM
  relative viability: 1
Zosuquidar + Lapatinib; first compound 0.1 µM
  relative viability: 0.983
Zosuquidar + Lapatinib; first compound 0.3162 µM
  relative viability: 0.977
Zosuquidar + Lapatinib; first compound 1 µM
  relative viability: 1.04
[1]; first compound 0.02 µM
  relative viability: 0.232
[1]; first compound 0.06325 µM
  relative viability: 0.44
[1]; first compound 0.2 µM
  relative viability: 0.379
[1]; first compound 0.6325 µM
  relative viability: 0.23
[1]; first compound 2 µM
  relative viability: 0.439

## SK-LU-1
Zosuquidar + Luminespib; first compound 0.01 µM
  relative viability: 0.228
Zosuquidar + Luminespib; first compound 0.03162 µM
  relative viability: 0.201
Zosuquidar + Luminespib; first compound 0.1 µM
  relative viability: 0.177
Zosuquidar + Luminespib; first compound 0.3162 µM
  relative viability: 0.204
Zosuquidar + Luminespib; first compound 1 µM
  relative viability: 0.219
Kobe2602 + Dasatinib; first compound 0.2 µM
  relative viability: 0.18
Kobe2602 + Dasatinib; first compound 0.6325 µM
  relative viability: 0.184
Kobe2602 + Dasatinib; first compound 2 µM
  relative viability: 0.177
Kobe2602 + Dasatinib; first compound 6.325 µM
  relative viability: 0.17
Kobe2602 + Dasatinib; first compound 20 µM
  relative viability: 0.187
Zosuquidar + Lapatinib; first compound 0.01 µM
  relative viability: 0.905
Zosuquidar + Lapatinib; first compound 0.03162 µM
  relative viability: 0.918
Zosuquidar + Lapatinib; first compound 0.1 µM
  relative viability: 1.02
Zosuquidar + Lapatinib; first compound 0.3162 µM
  relative viability: 0.79
Zosuquidar + Lapatinib; first compound 1 µM
  relative viability: 1.01
[1]; first compound 0.06325 µM
  relative viability: 0.857
[1]; first compound 0.2 µM
  relative viability: 0.519
[1]; first compound 0.6325 µM
  relative viability: 0.481
[1]; first compound 2 µM
  relative viability: 0.529

## EPLC-272H
Zosuquidar + Luminespib; first compound 0.01 µM
  relative viability: 0.39
Zosuquidar + Luminespib; first compound 0.03162 µM
  relative viability: 0.362
Zosuquidar + Luminespib; first compound 0.1 µM
  relative viability: 0.514
Zosuquidar + Luminespib; first compound 0.3162 µM
  relative viability: 0.361
Zosuquidar + Luminespib; first compound 1 µM
  relative viability: 0.266
Kobe2602 + Dasatinib; first compound 0.2 µM
  relative viability: 0.387
Kobe2602 + Dasatinib; first compound 0.6325 µM
  relative viability: 0.387
Kobe2602 + Dasatinib; first compound 2 µM
  relative viability: 0.303
Kobe2602 + Dasatinib; first compound 6.325 µM
  relative viability: 0.331
Kobe2602 + Dasatinib; first compound 20 µM
  relative viability: 0.355
Zosuquidar + Lapatinib; first compound 0.01 µM
  relative viability: 0.916
Zosuquidar + Lapatinib; first compound 0.03162 µM
  relative viability: 0.97
Zosuquidar + Lapatinib; first compound 0.1 µM
  relative viability: 0.876
Zosuquidar + Lapatinib; first compound 0.3162 µM
  relative viability: 1.01
Zosuquidar + Lapatinib; first compound 1 µM
  relative viability: 1
[1]; first compound 0.02 µM
  relative viability: 0.192
[1]; first compound 0.06325 µM
  relative viability: 0.262
[1]; first compound 0.2 µM
  relative viability: 0.323
[1]; first compound 0.6325 µM
  relative viability: 0.356
[1]; first compound 2 µM
  relative viability: 0.279

## A-427
Zosuquidar + Luminespib; first compound 0.01 µM
  relative viability: 1.15
Zosuquidar + Luminespib; first compound 0.03162 µM
  relative viability: 0.963
Zosuquidar + Luminespib; first compound 0.1 µM
  relative viability: 0.749
Zosuquidar + Luminespib; first compound 0.3162 µM
  relative viability: 1.13
Zosuquidar + Luminespib; first compound 1 µM
  relative viability: 0.756
Kobe2602 + Dasatinib; first compound 0.2 µM
  relative viability: 0.673
Kobe2602 + Dasatinib; first compound 0.6325 µM
  relative viability: 0.766
Kobe2602 + Dasatinib; first compound 2 µM
  relative viability: 0.675
Kobe2602 + Dasatinib; first compound 6.325 µM
  relative viability: 0.701
Kobe2602 + Dasatinib; first compound 20 µM
  relative viability: 0.779
Zosuquidar + Lapatinib; first compound 0.01 µM
  relative viability: 1.07
Zosuquidar + Lapatinib; first compound 0.03162 µM
  relative viability: 1.02
Zosuquidar + Lapatinib; first compound 0.1 µM
  relative viability: 0.842
Zosuquidar + Lapatinib; first compound 0.3162 µM
  relative viability: 1.07
Zosuquidar + Lapatinib; first compound 1 µM
  relative viability: 1.01
[1]; first compound 0.02 µM
  relative viability: 0.657
[1]; first compound 0.06325 µM
  relative viability: 0.785
[1]; first compound 0.2 µM
  relative viability: 0.638
[1]; first compound 0.6325 µM
  relative viability: 0.773
[1]; first compound 2 µM
  relative viability: 0.744
